ChEMBL document CHEMBL4308841, “Synthesis, in vitro antiproliferative activity, and kinase inhibitory effects of pyrazole-containing diarylureas and diarylamides” (Eur J Med Chem, 2018)

Experiments:
HCT-15 [1] = test: Growth inhibition of human HCT15 cells incubated for 48 hrs by sulforhodamine B assay; format: functional, cell-based; settings: HCT-15, 48 h
SF-539 = test: Growth inhibition of human SF539 cells incubated for 48 hrs by sulforhodamine B assay; format: functional, cell-based; settings: SF-539, 48 h
MCF7 [2] = test: Growth inhibition of human MCF7 cells incubated for 48 hrs by sulforhodamine B assay; format: functional, cell-based; settings: MCF7, 48 h
CCRF-CEM = test: Growth inhibition of human CCRF-CEM cells assessed as cell growth at 0.01 uM incubated for 48 hrs by sulforhodamine B assay relative to control; format: functional; settings: read-out: Activity
KM12 [3] = test: Growth inhibition of human KM12 cells assessed as cell growth at 0.01 uM incubated for 48 hrs by sulforhodamine B assay relative to control; format: functional; settings: KM12, 48 h, read-out: Activity
SF-295 = test: Growth inhibition of human SF295 cells assessed as cell growth at 0.01 uM incubated for 48 hrs by sulforhodamine B assay relative to control; format: functional; settings: SF-295, 48 h, read-out: Activity
OVCAR-5 = test: Growth inhibition of human OVCAR5 cells assessed as cell growth at 0.01 uM incubated for 48 hrs by sulforhodamine B assay relative to control; format: functional; settings: OVCAR-5, 48 h, read-out: Activity
MCF7 [4] = test: Growth inhibition of human MCF7 cells assessed as cell growth at 0.01 uM incubated for 48 hrs by sulforhodamine B assay relative to control; format: functional; settings: MCF7, 48 h, read-out: Activity
RPMI-8226 = test: Growth inhibition of human RPMI8226 cells assessed as cell growth at 0.1 uM incubated for 48 hrs by sulforhodamine B assay relative to control; format: functional; settings: RPMI-8226, 48 h, read-out: Activity
NCI-H226 = test: Growth inhibition of human NCI-H226 cells assessed as cell growth at 0.1 uM incubated for 48 hrs by sulforhodamine B assay relative to control; format: functional; settings: NCI-H226, 48 h, read-out: Activity
SW-620 = test: Growth inhibition of human SW620 cells assessed as cell growth at 0.1 uM incubated for 48 hrs by sulforhodamine B assay relative to control; format: functional; settings: SW-620, 48 h, read-out: Activity
SF-268 = test: Growth inhibition of human SF268 cells assessed as cell growth at 0.1 uM incubated for 48 hrs by sulforhodamine B assay relative to control; format: functional; settings: SF-268, 48 h, read-out: Activity
MDA-MB-435 = test: Growth inhibition of human MDA-MB-435 cells assessed as cell growth at 0.1 uM incubated for 48 hrs by sulforhodamine B assay relative to control; format: functional; settings: MDA-MB-435, 48 h, read-out: Activity
OVCAR-3 [5] = test: Growth inhibition of human OVCAR3 cells assessed as cell growth at 0.1 uM incubated for 48 hrs by sulforhodamine B assay relative to control; format: functional; settings: OVCAR-3, 48 h, read-out: Activity
RXF 393 [6] = test: Growth inhibition of human RXF393 cells assessed as cell growth at 0.1 uM incubated for 48 hrs by sulforhodamine B assay relative to control; format: functional; settings: RXF 393, 48 h, read-out: Activity
T47D [7] = test: Growth inhibition of human T47D cells assessed as cell growth at 0.1 uM incubated for 48 hrs by sulforhodamine B assay relative to control; format: functional; settings: read-out: Activity
HCT-15 [8] = test: Growth inhibition of human HCT15 cells assessed as cell growth at 1 uM incubated for 48 hrs by sulforhodamine B assay relative to control; format: functional; settings: HCT-15, 48 h, read-out: Activity
IGROV-1 = test: Growth inhibition of human IGROV1 cells assessed as cell growth at 1 uM incubated for 48 hrs by sulforhodamine B assay relative to control; format: functional; settings: IGROV-1, 48 h, read-out: Activity
OVCAR-3 [9] = test: Growth inhibition of human OVCAR3 cells assessed as cell growth at 1 uM incubated for 48 hrs by sulforhodamine B assay relative to control; format: functional; settings: OVCAR-3, 48 h, read-out: Activity
OVCAR-4 = test: Growth inhibition of human OVCAR4 cells assessed as cell growth at 1 uM incubated for 48 hrs by sulforhodamine B assay relative to control; format: functional; settings: OVCAR-4, 48 h, read-out: Activity
786-0 = test: Growth inhibition of human 786-0 cells assessed as cell growth at 1 uM incubated for 48 hrs by sulforhodamine B assay relative to control; format: functional; settings: 786-0, 48 h, read-out: Activity
SN12C = test: Growth inhibition of human SN12C cells assessed as cell growth at 1 uM incubated for 48 hrs by sulforhodamine B assay relative to control; format: functional; settings: read-out: Activity
UO-31 = test: Growth inhibition of human UO31 cells assessed as cell growth at 1 uM incubated for 48 hrs by sulforhodamine B assay relative to control; format: functional; settings: UO-31, 48 h, read-out: Activity
Hs-578T = test: Growth inhibition of human Hs578T cells assessed as cell growth at 1 uM incubated for 48 hrs by sulforhodamine B assay relative to control; format: functional; settings: read-out: Activity
K562 = test: Growth inhibition of human K562 cells assessed as cell growth at 100 uM incubated for 48 hrs by sulforhodamine B assay relative to control; format: functional; settings: K562, 48 h, read-out: Activity
COLO 205 = test: Growth inhibition of human COLO205 cells assessed as cell growth at 100 uM incubated for 48 hrs by sulforhodamine B assay relative to control; format: functional; settings: COLO 205, 48 h, read-out: Activity
KM12 [10] = test: Growth inhibition of human KM12 cells assessed as cell growth at 100 uM incubated for 48 hrs by sulforhodamine B assay relative to control; format: functional; settings: KM12, 48 h, read-out: Activity
LOX IMVI = test: Growth inhibition of human LOXIMVI cells assessed as cell growth at 100 uM incubated for 48 hrs by sulforhodamine B assay relative to control; format: functional; settings: read-out: Activity
A498 = test: Growth inhibition of human A498 cells assessed as cell growth at 100 uM incubated for 48 hrs by sulforhodamine B assay relative to control; format: functional; settings: A498, 48 h, read-out: Activity
RXF 393 [11] = test: Growth inhibition of human RXF393 cells assessed as cell growth at 100 uM incubated for 48 hrs by sulforhodamine B assay relative to control; format: functional; settings: RXF 393, 48 h, read-out: Activity
BT-549 = test: Growth inhibition of human BT549 cells assessed as cell growth at 100 uM incubated for 48 hrs by sulforhodamine B assay relative to control; format: functional; settings: BT-549, 48 h, read-out: Activity
T47D [12] = test: Growth inhibition of human T47D cells assessed as cell growth at 100 uM incubated for 48 hrs by sulforhodamine B assay relative to control; format: functional; settings: read-out: Activity
[13] = read-out: LC50 (the source's name)
[14] = read-out: pLC50 (the source's name) (converted)

Which results are given for `COc1cc(Cl)cc(-c2nn(-c3cccc(NC(=O)Nc4ccc(Cl)c(C(F)(F)F)c4)c3)cc2-c2ccncc2)c1`?
GI50 (HCT-15 [1]; read-out: GI50): 0.493 µM; CC50 (HCT-15 [1]; [13]): 6.46 µM; TGI (HCT-15 [1]; read-out: TGI): 24 µM; GI50 (HCT-15 [1]; read-out: pGI50 (converted)): 0.49 µM; CC50 (HCT-15 [1]; [14]): 8.51 µM; TGI (HCT-15 [1]; read-out: pTGI (converted)): 2.4 µM; GI50 (SF-539; read-out: GI50): 1.5 µM; CC50 (SF-539; [13]): 7.51 µM; TGI (SF-539; read-out: TGI): 33.5 µM; GI50 (SF-539; read-out: pGI50 (converted)): 1.51 µM; CC50 (SF-539; [14]): 7.59 µM; TGI (SF-539; read-out: pTGI (converted)): 3.39 µM; GI50 (MCF7 [2]; read-out: GI50): 1.01 µM; LC50 (MCF7 [2]; read-out: LC50): > 100 µM; TGI (MCF7 [2]; read-out: TGI): 11 µM; GI50 (MCF7 [2]; read-out: pGI50 (converted)): 1.02 µM; LC50 (MCF7 [2]; read-out: pLC50 (converted)): > 100 µM; TGI (MCF7 [2]; read-out: pTGI (converted)): 11 µM; growth at 0.01 µM (CCRF-CEM): 97%; growth at 0.01 µM (KM12 [3]): 95%; growth at 0.01 µM (SF-295): 59%; growth at 0.01 µM (OVCAR-5): 54%; growth at 0.01 µM (MCF7 [4]): 90%; growth at 0.1 µM (RPMI-8226): 100%; growth at 0.1 µM (NCI-H226): 96%; growth at 0.1 µM (SW-620): 96%; growth at 0.1 µM (SF-268): 90%; growth at 0.1 µM (MDA-MB-435): 93%; growth at 0.1 µM (OVCAR-3 [5]): 99%; growth at 0.1 µM (RXF 393 [6]): 96%; growth at 0.1 µM (T47D [7]): 103%; growth at 1 µM (HCT-15 [8]): 35%; growth at 1 µM (IGROV-1): 87%; growth at 1 µM (OVCAR-3 [9]): 24%; growth at 1 µM (OVCAR-4): 62%; growth at 1 µM (786-0): 74%; growth at 1 µM (SN12C): 63%; growth at 1 µM (UO-31): 64%; growth at 1 µM (Hs-578T): 89%; growth at 100 µM (K562): -51%; growth at 100 µM (COLO 205): -79%; growth at 100 µM (KM12 [10]): -70%; growth at 100 µM (LOX IMVI): -34%; growth at 100 µM (A498): -70%; growth at 100 µM (RXF 393 [11]): -58%; growth at 100 µM (BT-549): -68%; growth at 100 µM (T47D [12]): -18%
